Experimental data reported in US7230139B2, “Diterpenoid compounds, compositions thereof and their use as anti-cancer or anti-fungal agents” (priority 2004, dated 2007).
Where two headings read alike, the source gives them in different places.

Assays:
[1] = Body weight of SW480 tumor-bearing mice; type: in vivo, CB17 SCID/SCID female mice; conditions: i.v. once daily for five days; 10 mg/kg (50, 50a, 50b), 50 mg/kg (74a)
Protocol: (§1) SW480 cells were transplanted subcutaneously into the flank of female CB 17 SCID/SCID mice. Each mouse was inoculated with a suspension of 1×10^6 tumor cells per 100 μL on day zero. The following five treatment groups of ten mice each were used: (a) a negative control group treated with intravenous (i.v.) injection of vehicle, (b) a group treated with i.v. injection of a Compound 50, (c) a group treated with i.v. injection of a Compound 50a, (d) a group treated with i.v. injection of Compound 50b, (e) a group treated with i.v. injection of Compound 74a.
(§2) Treatment started on day twelve after SW480 cells transplantation and Compounds 50, 50a, 50b and 74a were administered i.v. once daily for five consecutive days at a dose of 10, 10, 10 and 50 mg/kg, respectively. Compound 50, 50a and 50b were prepared as a working solution of 1.5 mg/mL in a vehicle solution of 20% Cremaphor EL (Sigma, St. Louis, Miss., USA), and 10% Ethanol. Compound 74a was prepared as a working solution of 5 mg/mL in a vehicle solution of 5% Dextrose (Abbot Laboratories, QC, Canada). The negative control groups were treated with vehicle solution of 20% Cremaphor EL and 10% Ethanol alone.
(§3) The mice were weighed and the tumors measured on day 12 and every 2 to 3 days after treatment commenced. Observations continued for 23 days after initial tumor implantation. The changes in body weight and in the calculated tumor volume were plotted (FIGS. 9 and 10). Statistical analysis was performed using GraphPad Prism (GraphPad Software Inc., San Diego, Calif.). Two-way ANOVA was used to determine how the treatment affected tumor growth over time. Following the two-way ANOVA, post-tests were performed using the Benferroni method to determine the statistical difference between the mean tumor-size of the two groups being compared on every day that the tumors were measured.

[2] = system: SW480 human colon carcinoma cancer cells; assay: SW480 colon carcinoma xenograft in SCID mice; type: in vivo, CB17 SCID/SCID female mice; conditions: i.v. 10 mg/kg once a day for five days
Protocol: The resultant mice are a model for a human having colon carcinoma cancer.
The SW480 human colon carcinoma cancer cells were maintained in RPMI supplemented with 10% inactivated fetal bovine serum and 1% penicillin-streptomycin-L-Glutamine, under 5% CO2 at 37° C., and passaged twice a week. The cells were grown at a confluency lower than 70% and then collected with Trypsin (Bio-Whittaker, Md., USA). The cells were then centrifuged and washed twice using phosphate buffered saline solution (PBS) and resuspended in PBS at 1×10^6 cells per 100 μl. Viability was examined by staining with Trypan Blue and only flasks with cell viability of greater than 95% were used for in vivo studies.
as §1, §2, §3

[3] = system: Saccharomyces cerevisiae strain W303a; assay: Yeast growth inhibition (OD600); type: cell-based; conditions: dilution series, YEP with glucose, galactose or glycerol, 30° C.; dose-dependent
Protocol: Yeast cells were first cultured overnight in 10 mL of YEP glucose-containing medium at 30° C. The following day, 5 μL of the overnight culture (5–6×10^3 cells) was added to 100 μL of YEP media supplemented with 2% of one of the three carbon sources mentioned above in a 96-well microtitre plate. To these cultures a dilution series of Compound 50 was added. Compound 50 was prepared as a stock solution in 100% dimethyl sulfoxide (DMSO) at a concentration of 10 mM. Serial dilutions were prepared in distilled water. The final DMSO concentration in each well was 0.5%. Yeast cells were grown at 30° C. and cell growth was monitored by reading the OD600 (optical density at 600 nm) with a Tecan ULTRA plate reader (TECAN U.S. Inc., Research Triangle Park, N.C., USA). […] Accordingly, Compound 50, an illustrative Diterpenoid Compound, is useful for inhibiting the growth of a fungus or treating a fungal infection.

[4] = type: in vivo, CB17 SCID/SCID female mice
Protocol: C33A cells were transplanted subcutaneously into the flank of female CB17 SCID/SCID mice. Each mouse was inoculated with a suspension of 2×10^6 tumor cells per 100 μL on day zero. The following six treatment groups of ten mice each were used: (a) a negative control group treated with intravenous (i.v.) injection of vehicle, (b) a negative control group treated with intraperitoneal (i.p.) injection of vehicle, (c) a positive control group treated with i.p. injection of Cisplatin, (d) a group treated with i.v. injection of a Compound 50, (e) a group treated with i.p. injection of Compound 50, and (f) a group treated with subcutaneous (s.c.) injection of Compound 50.
Treatment started on day thirteen after C33A cells transplantation for Compound 50 treated groups and on day fourteen for Cisplatin treated group. Compound 50 was administered i.v., i.p., and s.c. once daily for five consecutive days at a dose of 10, 15 and 30 mg/kg, respectively. Compound 50 was prepared as a working solution of 1.5 mg/mL in a vehicle solution of 20% Cremaphor EL (Sigma, St. Louis, Mo., USA), 10% Ethanol and 5% Dextrose (Abbot Laboratories, QC, Canada). The negative control groups were treated with vehicle alone. The positive control group was treated once every 3 days for fifteen days at a dose of 3.5 mg/kg. Cisplatin was formulated in PBS on each day of the injection and was administered i.p.
as §3, with “13” for “12”, “36” for “23”, “4” for “9”, “5).” for “10).”, “measured. […]” for “measured.”

Compound: COc1ccc2c(c1)C1(C)C=CC(=O)C(C)(C)C1=C(O)C2=O (racemic) [Compound 50]
- Change in body weight [1]: non-significant change in body weight
- Tumor growth compared to vehicle [2]: significant reduction (p<0.001)
- Growth of Saccharomyces cerevisiae [3]: significantly inhibited growth
- Change in body weight ([4]; Compound 50 i.v., i.p. or s.c. 10, 15, 30 mg/kg once daily for five days): non-significant change in body weight
- Animals died during the observation period ([4]; i.v. group of ten mice, four died in the i.v. vehicle group): two animals
